Read-outs that look alike come from different tables or passages of the source.
Experiment: PK after subcutaneous administration of solutions in rats
Type: in vivo, Wistar Han rat
Settings: for Plasma concentration: 0 h
Protocol: Formulations containing the compound of Formula (Ia) were prepared as aqueous solutions or oral formulations and administered subcutaneously to rats, dogs, cynomolgus monkey, and/or rhesus monkey.
A solution of the compound of Formula (Ia) in 10% ethanol, 13% water, and 77% PEG 200 (400 mg/mL) was prepared. The solution was administered subcutaneously to dogs at a dose of 12 mg/kg and rats at a dose of 50 mg/kg and the pharmacokinetic (PK) profile was determined. […] In both species, plasma concentrations of the compound of Formula (Ia) were maintained above the target trough concentration of 20 nM (corresponding to an IQ of 5) for at least 84 days (12 weeks).
A solution of the free acid of the compound of Formula (Ia) in 15% water and 85% PEG 300 (300 mg/mL) was prepared. The solution was administered subcutaneously to male Wistar Han rats at a dose level of 50 mg/kg and dose volume of 0.167 mL/kg and the pharmacokinetic (PK) profile was determined.
A 300 mg/ml solution of a compound of Formula (Ia) having 9.8 w/w % water, 65.0 w/w % PEG 300, and 25.2 w/w % of the compound of Formula (Ia) was prepared. The solution was administered subcutaneously to rats at a dose of 50 mg/kg and to dogs at a dose of 12 mg/kg and the pharmacokinetic (PK) profile was determined. […] In the rat, plasma concentrations of the compound of Formula (Ia) were maintained above the target trough concentration of 20 nM for at least 168 days (24 weeks). In the dog, plasma concentrations of the compound of Formula (Ia) were maintained above the target trough concentration of 20 nM for at least 84 days (12 weeks).
(§1) A 150 mg/ml solution of a compound of Formula (Ia) having 27.92 w/w % water, 58.04 w/w % PEG 300, 13.47 w/w % of a compound of Formula (Ia), and 1.1 w/w % NaOH was prepared. The solution was administered subcutaneously to rats at a dose of 50 mg/kg and to dogs at a dose of 12 mg/kg and the pharmacokinetic (PK) profile was determined. […] In the rat, plasma concentrations of the compound of Formula (Ia) were maintained above the target trough concentration of 20 nM for at least 126 days (18 weeks). In the dog, plasma concentrations of the compound of Formula (Ia) were maintained above the target trough concentration of 20 nM for at least 56 days (8 weeks).
as §1, with “300” for “150”, “23.2” for “27.92”, “50.0” for “58.04”, “25.7” for “13.47”
A 50 mg/ml solution of a compound of Formula (Ia) having 30.07 w/w % water, 64.40 w/w % PEG 300, 4.68 w/w % of a sodium salt of the compound of Formula (Ia), and 0.85 w/w % poloxamer 188 was prepared. The solution was administered subcutaneously to rats at a dose of 50 mg/kg and to dogs at a dose of 6 mg/kg and the pharmacokinetic (PK) profile was determined. […] In the rat, plasma concentrations of the compound of Formula (Ia) were maintained above the target trough concentration of 20 nM for at least 28 days (4 weeks). In the dog, plasma concentrations of the compound of Formula (Ia) were maintained above the target trough concentration of 20 nM for at least 14 days (2 weeks).
A 75 mg/ml solution of a compound of Formula (Ia) having 29.21 w/w % water, 62.55 w/w % PEG 300, 6.97 w/w % of a sodium salt of the compound of Formula (Ia), and 1.68 w/w % poloxamer 188 was prepared. The solution was administered subcutaneously to rats at a dose of 50 mg/kg and to dogs at a dose of 6 mg/kg and the pharmacokinetic (PK) profile was determined. […]

[1] = male, Wistar Han, rat, plasma, sc, 50 mg/kg, rat #3, SC 50 mg/kg, 300 mg/mL in 15% water/85% PEG 300
[2] = male, Wistar Han, rat, plasma, sc, 50 mg/kg, rat mean, n=3, SC 50 mg/kg, 300 mg/mL in 15% water/85% PEG 300
[3] = rat, SC 50 mg/kg, 75 mg/mL solution (w/w %: 29.21 water, 62.55 PEG 300, 6.97 sodium salt of Formula (Ia), 1.68 poloxamer 188), mean ± SD, n=3
[4] = rat, SC 50 mg/kg, 125 mg/mL solution (w/w %: 27.51 water, 58.92 PEG 300, 11.48 sodium salt of Formula (Ia), 2.09 poloxamer 188), mean ± SD, n=3
[5] = rat, SC 50 mg/kg, 150 mg/mL solution (w/w %: 26.6 water, 56.97 PEG 300, 13.39 Formula (Ia), 0.57 NaOH, 2.49 poloxamer 188), mean ± SD, n=3
[6] = rat, SC 50 mg/kg, 300 mg/mL solution (w/w %: 9.8 water, 65.0 PEG 300, 25.2 Formula (Ia)), mean ± SD, n=3
[7] = rat, SC 50 mg/kg, 300 mg/mL solution (w/w %: 21.97 water, 47.05 PEG 300, 25.21 Formula (Ia), 1.08 NaOH, 4.69 poloxamer 188), mean ± SD, n=3

CC(C)(C#Cc1ccc(-c2ccc(Cl)c3c(NS(C)(=O)=O)nn(CC(F)(F)F)c23)c([C@H](Cc2cc(F)cc(F)c2)NC(=O)Cn2nc(C(F)(F)F)c3c2C(F)(F)[C@@H]2C[C@H]32)n1)S(C)(=O)=O [Formula (Ia), N—((S)-1-(3-(4-chloro-3-(methylsulfonamido)-1-(2,2,2-trifluoroethyl)-1H-indazol-7-yl)-6-(3-methyl-3-(methylsulfonyl)but-1-yn-1-yl)pyridin-2-yl)-2-(3,5-difluorophenyl)ethyl)-2-((3bS,4aR)-5,5-difluoro-3-(trifluoromethyl)-3b,4,4a,5-tetrahydro-1H-cyclopropa[3,4]cyclopenta[1,2-c]pyrazol-1-yl)acetamide]
concentration at 96 h [1]: 85.2 nM
concentration at 168 h [1]: 137 nM
concentration at 336 h [1]: 284 nM
concentration at 504 h [1]: 281 nM
concentration at 672 h [1]: 304 nM
concentration at 840 h [1]: 302 nM
concentration at 1008 h [1]: 289 nM
concentration at 1344 h [1]: 278 nM
concentration at 1680 h [1]: 200 nM
concentration at 1 h (male, Wistar Han, rat, plasma, sc, 50 mg/kg, rat mean, n=3, 1 h, SC 50 mg/kg, 300 mg/mL in 15% water/85% PEG 300): 8.6 nM
concentration at 3 h (male, Wistar Han, rat, plasma, sc, 50 mg/kg, rat mean, n=3, 3 h, SC 50 mg/kg, 300 mg/mL in 15% water/85% PEG 300): 21.5 nM
concentration at 8 h (male, Wistar Han, rat, plasma, sc, 50 mg/kg, rat mean, n=3, 8 h, SC 50 mg/kg, 300 mg/mL in 15% water/85% PEG 300): 32.2 nM
concentration at 24 h (male, Wistar Han, rat, plasma, sc, 50 mg/kg, rat mean, n=3, 24 h, SC 50 mg/kg, 300 mg/mL in 15% water/85% PEG 300): 48.2 nM
concentration at 48 h (male, Wistar Han, rat, plasma, sc, 50 mg/kg, rat mean, n=3, 48 h, SC 50 mg/kg, 300 mg/mL in 15% water/85% PEG 300): 70.6 nM
concentration at 72 h (male, Wistar Han, rat, plasma, sc, 50 mg/kg, rat mean, n=3, 72 h, SC 50 mg/kg, 300 mg/mL in 15% water/85% PEG 300): 67.5 nM
concentration at 96 h [2]: 75.8 nM
concentration at 168 h [2]: 137 nM
concentration at 336 h [2]: 272 nM
concentration at 504 h [2]: 292 nM
concentration at 672 h [2]: 312 nM
concentration at 840 h [2]: 313 nM
concentration at 1008 h [2]: 282 nM
concentration at 1344 h [2]: 253 nM
concentration at 1680 h [2]: 189 nM
AUC(0-t) (male, Wistar Han, rat, plasma, sc, 50 mg/kg, rat, single SC 50 mg/kg, 300 mg/mL free acid in 85:15 w/w PEG 300:water, mean ± SD, n=3, read-out: AUC0-168h): 13.3 ± 0.3 µM·h
AUC(0-t) (male, Wistar Han, rat, plasma, sc, 50 mg/kg, rat, single SC 50 mg/kg, 300 mg/mL free acid in 85:15 w/w PEG 300:water, mean ± SD, n=3, read-out: AUC0-336h): 47.6 ± 1.2 µM·h
AUC(0-t) (male, Wistar Han, rat, plasma, sc, 50 mg/kg, rat, single SC 50 mg/kg, 300 mg/mL free acid in 85:15 w/w PEG 300:water, mean ± SD, n=3, read-out: AUC0-672h): 146 ± 6 µM·h
Plasma concentration (rat #1, SC 50 mg/kg, 300 mg/mL in 15% water/85% PEG 300): BLQ
Plasma concentration (rat #2, SC 50 mg/kg, 300 mg/mL in 15% water/85% PEG 300): BLQ
Plasma concentration (rat #3, SC 50 mg/kg, 300 mg/mL in 15% water/85% PEG 300): BLQ
Time plasma concentrations maintained above the target trough concentration of 20 nM (rat, SC 50 mg/kg, 50 mg/mL solution (w/w %: 30.07 water, 64.40 PEG 300, 4.68 sodium salt of Formula (Ia), 0.85 poloxamer 188)): at least 28 days
AUC0-28d (rat, SC 50 mg/kg, 50 mg/mL solution (w/w %: 30.07 water, 64.40 PEG 300, 4.68 sodium salt of Formula (Ia), 0.85 poloxamer 188), mean ± SD, n=3): 643 ± 75 µM·h
Time plasma concentrations maintained above the target trough concentration of 20 nM (rat, SC 50 mg/kg, 75 mg/mL solution (w/w %: 29.21 water, 62.55 PEG 300, 6.97 sodium salt of Formula (Ia), 1.68 poloxamer 188)): at least 42 days
AUC0-7d [3]: 241 ± 22 µM·h
AUC0-28d [3]: 690 ± 32 µM·h
Time plasma concentrations maintained above the target trough concentration of 20 nM (rat, SC 50 mg/kg, 100 mg/mL solution (w/w %: 28.36 water, 60.73 PEG 300, 9.23 sodium salt of Formula (Ia), 1.68 poloxamer 188)): at least 28 days
AUC0-28d (rat, SC 50 mg/kg, 100 mg/mL solution (w/w %: 28.36 water, 60.73 PEG 300, 9.23 sodium salt of Formula (Ia), 1.68 poloxamer 188), mean ± SD, n=3): 716 ± 62 µM·h
Time plasma concentrations maintained above the target trough concentration of 20 nM (rat, SC 50 mg/kg, 125 mg/mL solution (w/w %: 27.51 water, 58.92 PEG 300, 11.48 sodium salt of Formula (Ia), 2.09 poloxamer 188)): at least 28 days
AUC0-7d [4]: 153 ± 38 µM·h
AUC0-28d [4]: 673 ± 67 µM·h
Time plasma concentrations maintained above the target trough concentration of 20 nM (rat, SC 50 mg/kg, 150 mg/mL solution (w/w %: 26.6 water, 56.97 PEG 300, 13.39 Formula (Ia), 0.57 NaOH, 2.49 poloxamer 188)): at least 98 days
AUC0-98d [5]: 949 ± 114 µM·h
AUC0-112d [5]: 963 ± 102 µM·h
Time plasma concentrations maintained above the target trough concentration of 20 nM (rat, SC 50 mg/kg, 150 mg/mL solution (w/w %: 27.92 water, 58.04 PEG 300, 13.47 Formula (Ia), 1.1 NaOH)): at least 126 days
AUC0-98d (rat, SC 50 mg/kg, 150 mg/mL solution (w/w %: 27.92 water, 58.04 PEG 300, 13.47 Formula (Ia), 1.1 NaOH), mean ± SD, n=3): 801 ± 119 µM·h
Time plasma concentrations maintained above the target trough concentration of 20 nM (rat, SC 50 mg/kg, 300 mg/mL solution (w/w %: 9.8 water, 65.0 PEG 300, 25.2 Formula (Ia))): at least 168 days
AUC0-98d [6]: 531 ± 30 µM·h
AUC0-168d [6]: 730 ± 55 µM·h
Time plasma concentrations maintained above the target trough concentration of 20 nM (rat, SC 50 mg/kg, 300 mg/mL solution (w/w %: 21.97 water, 47.05 PEG 300, 25.21 Formula (Ia), 1.08 NaOH, 4.69 poloxamer 188)): at least 98 days
AUC0-98d [7]: 928 ± 175 µM·h
AUC0-140d [7]: 948 ± 169 µM·h
Time plasma concentrations maintained above the target trough concentration of 20 nM (rat, SC 50 mg/kg, 300 mg/mL solution (w/w %: 23.2 water, 50.0 PEG 300, 25.7 Formula (Ia), 1.1 NaOH)): at least 126 days
AUC0-126d (rat, SC 50 mg/kg, 300 mg/mL solution (w/w %: 23.2 water, 50.0 PEG 300, 25.7 Formula (Ia), 1.1 NaOH), mean ± SD, n=3): 698 ± 13 µM·h
Time plasma concentrations maintained above the target trough concentration of 20 nM (rat, SC 50 mg/kg, 400 mg/mL solution in 10% ethanol, 13% water, 77% PEG 200): at least 84 days
AUC0-84d (rat, SC 50 mg/kg, 400 mg/mL solution in 10% ethanol, 13% water, 77% PEG 200, mean ± SD, n=3): 404 ± 139 µM·h
AUC0-1680h (rat, single SC 50 mg/kg, 300 mg/mL free acid in 85:15 w/w PEG 300:water, mean ± SD, n=3): 412 ± 21 µM·h
